Test results published in patent US20050261472A1, “Binding moieties for fibrin” (Dyax Corp., priority 1999, published 2005).
Bridge positions count the residues as written; N and C are the ends. Square brackets hold non-standard residues; d marks the D form. Peptide text beside a SMILES is read from it. hSer = N[C@@H](CCO)C(=O)O

The compounds below were run against T1, DD(E) (Homo sapiens, UniProt P02671+P02675+P02679) (assay: dissociation constant against fibrin-derived polypeptide DD(E)). Conditions: cyclic peptides of Table 12; unit inferred; read-out: Kd against DD(E).
T1 construct: host or cells: purchased fibrinogen clotted with thrombin, digested with plasmin, then purified by ammonium sulfate cuts and Sephacryl S200
T1 sequence (P02671 130-216): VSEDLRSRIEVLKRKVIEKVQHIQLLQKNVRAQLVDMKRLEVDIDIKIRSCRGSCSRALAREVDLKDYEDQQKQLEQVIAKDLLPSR
T1 sequence (P02675 164-491): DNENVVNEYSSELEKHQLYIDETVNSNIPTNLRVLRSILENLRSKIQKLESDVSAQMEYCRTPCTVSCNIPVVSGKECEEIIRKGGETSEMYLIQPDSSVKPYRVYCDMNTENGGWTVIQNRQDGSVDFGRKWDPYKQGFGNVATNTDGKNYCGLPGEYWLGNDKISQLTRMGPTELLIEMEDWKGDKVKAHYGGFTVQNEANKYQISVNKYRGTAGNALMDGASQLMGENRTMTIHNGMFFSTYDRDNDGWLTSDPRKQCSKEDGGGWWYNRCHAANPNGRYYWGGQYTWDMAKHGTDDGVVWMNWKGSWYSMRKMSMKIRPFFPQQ
T1 sequence (P02679 114-432): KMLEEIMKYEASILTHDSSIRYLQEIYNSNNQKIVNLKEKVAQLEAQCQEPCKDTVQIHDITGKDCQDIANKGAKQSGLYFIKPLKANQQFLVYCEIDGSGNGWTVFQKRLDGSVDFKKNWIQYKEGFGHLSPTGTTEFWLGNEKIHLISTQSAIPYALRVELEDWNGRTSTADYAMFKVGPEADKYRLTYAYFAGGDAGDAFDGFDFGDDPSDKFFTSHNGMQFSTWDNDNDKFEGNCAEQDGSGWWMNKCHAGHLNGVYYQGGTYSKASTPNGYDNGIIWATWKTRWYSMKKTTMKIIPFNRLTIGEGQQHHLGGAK
T1 sequence (P02671 36-97): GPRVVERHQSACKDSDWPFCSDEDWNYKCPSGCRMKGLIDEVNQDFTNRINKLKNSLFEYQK
T1 sequence (P02675 45-152): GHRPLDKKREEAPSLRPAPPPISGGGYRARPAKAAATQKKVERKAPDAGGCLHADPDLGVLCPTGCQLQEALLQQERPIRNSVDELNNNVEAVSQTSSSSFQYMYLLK
T1 sequence (P02679 27-88): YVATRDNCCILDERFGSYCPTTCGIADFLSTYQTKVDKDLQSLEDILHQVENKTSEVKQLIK
Type: binding
Method: The soluble fibrin-derived polypeptide DD(E) was prepared following a modification of a published method (Moskoitz and Budzynksi, Biochemistry, 33: 12937-12944 (1994) and references therein). Fibrinogen containing a Factor XIII trace impurity (1 g, Grade L; purchased from American Diagnostica) was dissolved in TBS buffer and dialyzed overnight against TBS containing 5 mM citrate. The fibrinogen concentration was adjusted to 3.0 mg/ml and CaCl2 was added to a concentration of 10 mM. Clotting of the fibrinogen was initiated by the addition of thrombin to 0.5 U/ml and the clot was incubated for 3 hours at 37° C. The clot was cut up with a spatula to release water and to concentrate the clot. The clot pieces were washed twice with TBS.Ca buffer (TBS containing 2 mM CaCl2) and were centrifuged at 4,000×g to compact the clots between washes. The clot material was resuspended in 250 ml TBS containing 25 mM CaCl2 and 2 K.I.U. plasmin per mg fibrin. The clots were digested overnight at 20° C. Undigested clot was removed by pipette, and the supernatant was shaken with 10 ml of Lysine Sepharose (Pharmacia) for 30 minutes and filtered to remove the resin. Aprotinin was added to the filtrate to a concentration of 500 U/μL. Ammonium Sulfate was added to 30% saturation and the precipitated protein was removed by centrifugation. More ammonium sulfate was added to the supernatant to a final concentration of 50% saturation, and the precipitated protein was concentrated by centrifugation. The pellets, containing DD(E), were resuspended in a small volume of buffer (50 mM Tris, 150 mM NaCl, 2 mM CaCl2) (<10 ml) and chromatographed on a Sephacryl S200 (Pharmacia) size exclusion column (5×100 cm) in the same buffer. Fractions of protein eluted from the column were assayed by SDS-PAGE for DD(E). DD(E) contains subunits of 55 kD (Fragment E) and 190 kD (Fragment DD). […]
Dissociation constants were determined against DD(E) as described above.

Compound | Kd [µM]
C[C@@H](O)[C@@H]1NC(=O)CNC(=O)[C@H](Cc2ccc(O)cc2)NC(=O)[C@H](Cc2ccc(O)cc2)NC(=O)[C@H](CC(=O)O)NC(=O)CNC(=O)CNC1=O [(II)] (cyclo(GDYYGTG)) | > 500
side-chain-to-side-chain cyclic peptide bearing a central Tyr-Tyr-Gly-Thr moiety [(III)] | 179

Same assay, conditions: read-out: Kd DD(E)

Compound | Kd [µM]
CC(C)C[C@H](NC(=O)[C@@H]1CSSC[C@H](NC(=O)[C@@H]2CCCN2C(=O)[C@@H](N)CC(C)C)C(=O)N[C@@H](CC(=O)O)C(=O)N[C@@H](Cc2ccc(O)cc2)C(=O)N[C@@H](Cc2ccc(O)cc2)C(=O)NCC(=O)N[C@@H](CN)C(=O)N1)C(=O)N[C@@H](CC(=O)O)C(N)=O [SEQ ID NO: 49, LPCDYYGDprCLD] | > 500
CC(C)C[C@H](NC(=O)[C@@H]1CSSC[C@H](N)C(=O)N[C@@H](CC(=O)O)C(=O)N[C@@H](Cc2ccc(O)cc2)C(=O)N[C@@H](Cc2ccc(O)cc2)C(=O)NCC(=O)N[C@@H]([C@@H](C)O)C(=O)N1)C(N)=O [compound 33] (H-CDYYGTCL-NH2; disulfide 1-7) | 22
CC[C@H](C)[C@H](NC(=O)[C@H](Cc1c[nH]c2ccccc12)NC(=O)[C@@H]1CSSC[C@H](NC(=O)[C@H](CCC(=O)O)NC(=O)[C@@H](N)Cc2c[nH]c3ccccc23)C(=O)N2CCC[C@H]2C(=O)N[C@@H](Cc2ccc(O)cc2)C(=O)NCC(=O)N[C@@H](CC(C)C)C(=O)N1)C(=O)N[C@@H](CCC(N)=O)C(N)=O [SEQ ID NO: 61, WECPYGLCWIQ] (H-WECPYGLCWIQ-NH2; disulfide 3-8) | 0.94
CC(C)C[C@H](NC(=O)[C@@H]1CSSC[C@H](NC(=O)[C@@H]2CCCN2C(=O)[C@@H](N)CC(C)C)C(=O)N[C@@H](CC(=O)O)C(=O)N[C@@H](Cc2ccc(O)cc2)C(=O)N[C@@H](Cc2ccc(O)cc2)C(=O)NCC(=O)N[C@@H](C(C)C)C(=O)N1)C(=O)N[C@@H](CC(=O)O)C(N)=O [SEQ ID NO: 51, LPCDYYGVCLD] (H-LPCDYYGVCLD-NH2; disulfide 3-9) | 28
CC[C@H](C)[C@H](NC(=O)[C@H](Cc1c[nH]cn1)NC(=O)[C@@H]1CSSC[C@H](NC(=O)[C@H](Cc2c[nH]cn2)NC(=O)[C@H](Cc2ccccc2)NC(=O)[C@@H](N)Cc2c[nH]c3ccccc23)C(=O)N2CCC[C@H]2C(=O)N[C@@H](Cc2ccc(O)cc2)C(=O)N[C@@H](CC(=O)O)C(=O)N[C@@H](CC(C)C)C(=O)N1)C(=O)N[C@@H](CC(C)C)C(N)=O [SEQ ID NO: 21, W F H C P Y D L C H I L] (H-WFHCPYDLCHIL-NH2; disulfide 4-9; N-terminus and C-terminus assumed) | 2.63
CC(C)C[C@H](NC(=O)[C@@H]1CSSC[C@H](NC(=O)[C@@H]2CCCN2C(=O)[C@@H](N)CC(C)C)C(=O)N[C@@H](CC(=O)O)C(=O)N[C@@H](Cc2ccc(O)cc2)C(=O)N[C@@H](Cc2ccc(O)cc2)C(=O)N[C@@H](C)C(=O)N[C@@H]([C@@H](C)O)C(=O)N1)C(=O)N[C@@H](CC(=O)O)C(N)=O [SEQ ID NO: 45, LPCDYYATCLD] | 12.3
CC[C@H](C)[C@H](NC(=O)[C@H](Cc1c[nH]cn1)NC(=O)[C@@H]1CSSC[C@H](NC(=O)[C@@H](N)Cc2c[nH]cn2)C(=O)N2CCC[C@H]2C(=O)N[C@@H](Cc2ccc(O)cc2)C(=O)N[C@@H](CC(=O)O)C(=O)N[C@@H](CC(C)C)C(=O)N1)C(=O)N[C@@H](CC(C)C)C(N)=O [SEQ ID NO: 59, HCPYDLCHIL] (H-HCPYDLCHIL-NH2; disulfide 2-7) | 3.8
CC(C)C[C@H](NC(=O)[C@@H]1CSSC[C@H](NC(=O)[C@H](C)NC(=O)[C@@H](N)CC(C)C)C(=O)N[C@@H](CC(=O)O)C(=O)N[C@@H](Cc2ccc(O)cc2)C(=O)N[C@@H](Cc2ccc(O)cc2)C(=O)NCC(=O)N[C@@H]([C@@H](C)O)C(=O)N1)C(=O)N[C@@H](CC(=O)O)C(N)=O [SEQ ID NO: 41, LACDYYGTCLD] (H-LACDYYGTCLD-NH2; disulfide 3-9) | 2.9
CC(C)C[C@H](NC(=O)[C@@H]1CSSC[C@H](NC(=O)[C@@H]2CCCN2C(=O)[C@@H](N)CC(C)C)C(=O)N[C@@H](CO)C(=O)N[C@@H](Cc2ccc(O)cc2)C(=O)N[C@@H](Cc2ccc(O)cc2)C(=O)NCC(=O)N[C@@H]([C@@H](C)O)C(=O)N1)C(=O)N[C@@H](Cc1c[nH]cn1)C(N)=O [SEQ ID NO: 12, LPCSYYGTCLH] (H-LPCSYYGTCLH-NH2; disulfide 3-9) | 9.8
H-DYYGT-NH2 [compound 35] | > 100
CC[C@H](C)[C@H](NC(=O)[C@H](Cc1c[nH]cn1)NC(=O)[C@@H]1CSSC[C@H](NC(=O)[C@H](Cc2c[nH]cn2)NC(=O)[C@@H](N)Cc2ccccc2)C(=O)N2CCC[C@H]2C(=O)N[C@@H](Cc2ccc(O)cc2)C(=O)N[C@@H](CC(=O)O)C(=O)N[C@@H](CC(C)C)C(=O)N1)C(N)=O [SEQ ID NO: 60, FHCPYDLCHI] (H-FHCPYDLCHI-NH2; disulfide 3-8; N-terminus and C-terminus assumed) | 2
CC(C)C[C@H](NC(=O)[C@@H]1CSSC[C@H](NC(=O)[C@@H]2CCCN2C(=O)[C@@H](N)CCCNC(=N)N)C(=O)N[C@@H](CC(N)=O)C(=O)N[C@@H](Cc2ccc(O)cc2)C(=O)N[C@@H](Cc2ccc(O)cc2)C(=O)NCC(=O)N[C@@H]([C@@H](C)O)C(=O)N1)C(=O)N[C@@H](Cc1c[nH]cn1)C(N)=O [SEQ ID NO: 16, RPCNYYGTCLH] (H-RPCNYYGTCLH-NH2; disulfide 3-9) | 4
CC(C)C[C@H](NC(=O)[C@@H]1CSSC[C@H](NC(=O)[C@@H]2CCCN2)C(=O)N[C@@H](CC(=O)O)C(=O)N[C@@H](Cc2ccc(O)cc2)C(=O)N[C@@H](Cc2ccc(O)cc2)C(=O)NCC(=O)N[C@@H]([C@@H](C)O)C(=O)N1)C(N)=O [compound 32] (H-PCDYYGTCL-NH2; disulfide 2-8) | 50
CC[C@H](C)[C@H](NC(=O)[C@H](Cc1c[nH]c2ccccc12)NC(=O)[C@@H]1CSSC[C@H](NC(=O)[C@H](CCC(=O)O)NC(=O)[C@@H](N)Cc2c[nH]c3ccccc23)C(=O)N2CCC[C@H]2C(=O)N[C@@H](Cc2ccc(O)cc2)C(=O)NCC(=O)N[C@@H](CC(C)C)C(=O)N1)C(N)=O [SEQ ID NO: 63, WECPYGLCWI] (H-WECPYGLCWI-NH2; disulfide 3-8; N-terminus and C-terminus assumed) | 3.87
CC(C)C[C@H](N)C(=O)N1CCC[C@H]1C(=O)N[C@H]1CSSC[C@@H](C(=O)N[C@@H](C)C(=O)N[C@@H](CC(=O)O)C(N)=O)NC(=O)[C@H]([C@@H](C)O)NC(=O)CNC(=O)[C@H](Cc2ccc(O)cc2)NC(=O)[C@H](Cc2ccc(O)cc2)NC(=O)[C@H](CC(=O)O)NC1=O [SEQ ID NO: 47, LPCDYYGTCAD] (H-LPCDYYGTCAD-NH2; disulfide 3-9) | 10.1
C[C@@H](O)[C@@H]1NC(=O)CNC(=O)[C@H](Cc2ccc(O)cc2)NC(=O)[C@H](Cc2ccc(O)cc2)NC(=O)[C@H](CC(=O)O)NC(=O)[C@@H](N)CSSC[C@@H](C(N)=O)NC1=O [compound 34] (H-CDYYGTC-NH2; disulfide 1-7) | 38
CC(C)C[C@H](NC(=O)[C@@H]1CSSC[C@H](NC(=O)[C@@H]2CCCN2C(=O)[C@@H](N)CC(C)C)C(=O)N[C@@H](CC(=O)O)C(=O)N[C@@H](Cc2ccc(O)cc2)C(=O)N[C@@H](Cc2ccc(O)cc2)C(=O)NCC(=O)N[C@@H](CCO)C(=O)N1)C(=O)N[C@@H](CC(=O)O)C(N)=O [SEQ ID NO: 50, LPCDYYGHseCLD] (H-LPCDYYG[hSer]CLD-NH2; disulfide 3-9) | > 500
C[C@@H](O)[C@@H]1NC(=O)CNC(=O)[C@H](Cc2ccc(O)cc2)NC(=O)[C@H](Cc2ccc(O)cc2)NC(=O)[C@H](CC(=O)O)NC(=O)[C@@H](NC(=O)[C@@H]2CCCN2C(=O)[C@@H](N)CCCNC(=N)N)CSSC[C@@H](C(=O)N[C@@H](Cc2ccccc2)C(=O)N[C@@H](CC(=O)O)C(N)=O)NC1=O [SEQ ID NO: 8, RPCDYYGTCFD] (H-RPCDYYGTCFD-NH2; disulfide 3-9) | 3.4
CC(C)C[C@H](NC(=O)[C@@H]1CSSC[C@H](NC(=O)[C@@H]2CCCN2C(=O)[C@@H](N)CC(C)C)C(=O)N[C@@H](CC(=O)O)C(=O)N[C@@H](Cc2ccc(O)cc2)C(=O)N[C@@H](Cc2ccc(O)cc2)C(=O)NCC(=O)N[C@@H](CO)C(=O)N1)C(=O)N[C@@H](CC(=O)O)C(N)=O [SEQ ID NO: 48, LPCDYYGSCLD] (H-LPCDYYGSCLD-NH2; disulfide 3-9) | 26

Same assay, conditions: sequences of phage isolates from TN10-9 and TN6-6 libraries (Table 5); read-out: Kd DD(E)

Compound | Kd [µM]
RFLCYDSYYHWWCSHH [compound 19] | ~10
NHGCYNSYGVPYCDYS [compound 18] | 2.7
WFHCPYDLCHIL [compound 21] | 1.4
